In patent publication US9724380B2, “Method and compositions for synchronizing time of insemination in gilts” (JBS UNITED ANIMAL HEALTH II LLC, priority 2012, dated 2017):

Experiments:
[1] = system: gilts; assay: Example 1: ovulation monitored by transrectal ultrasonography after 200 mcg triptorelin gel intravaginally at 96, 120 or 144 h after MATRIX withdrawal; format: in vivo, swine; settings: 200 mcg T, raw average, PTK 1-07 (rep 3)
Procedure: All gilts were individually fed MATRIX® as a top-dress for 14 days at the recommended rate of 15 mg/gilt/day. Gilts were withdrawn from MATRIX® feeding (last top feed in the morning on Day 0) and allotted to treatments. Controls were treated with a 1.2% methylcellulose gel formulation without triptorelin at 96 hours following MATRIX® withdrawal (last top-dress). The remaining gilts received 200 mcg triptorelin, as the acetate, in a 1.2% methylcellulose gel formulation intravaginally at various times after MATRIX® withdrawal. The four treatments were: 1) vehicle gel (VG) treatment at 96 hours after MATRIX® withdrawal, 2) triptorelin gel (TG) treatment at 96 hours after MATRIX® withdrawal, 3) TG treatment at 120 hours after MATRIX® withdrawal and 4) TG treatment at 144 hours after MATRIX® withdrawal. All gilts were monitored for their estrous and ovulatory status as described below. Gilts included in replicate 1 were selected from terminal line commercial production gilts located in grow/finish barns. Sexual maturity, as indicated by one or more estrous periods, was not verified prior to the start of MATRIX® feeding. Gilts included in replicate 2 were selected from a maternal line gilt population. Sexual maturity was verified by at least one estrous period verified and recorded prior to starting MATRIX® feeding.
Triptorelin (pGlu-His-Trp-Ser-Tyr-D-Trp-Leu-Arg-Pro-Gly-NH2) was supplied in the acetate form, from Bachem, Torrance, Calif. (Item H-4075 CGMP grade). Triptorelin gel (200 μg/2 mL) was formulated by Argenta (Auckland, NZ) in a gel composed of Methocel Premium A4000 (Dow Chemical), citrate buffer (pH 5.5), NaCl, methionine and EDTA (as potential stabilizers) and methyl and propyl parabens (as preservatives). Fifty-four milliliters of triptorelin gel (100 mcg triptorelin acetate/mL) was packaged in Amber Borosilicate Glass Serum Vials (610206-50) with a Gray Butyl Pharmaceutical Serum Vial Stopper (73828A-SS) with a Standard Aluminum Seal (SAS20NAT). […] MATRIX® was supplied as the US commercially available form.
The ovulatory status of all gilts was monitored by transrectal ultrasonography. For replicate one, ovulation was monitored two times on Day 5, then three times a day from Day 6 to Day 8. For replicate two, ovulation was monitored three times a day from Day 5 to Day 8. An Aloka 500 ultrasound machine with a 7.5 MHz linear array transducer attached to a fixed-angle PVC stabilizing rod to facilitate insertion into the rectum was used for this purpose. The transducer and PVC rod were coated with a gynecological lubricant and gently inserted into the rectum until the ovaries were visualized, one at a time. The diameters of the three largest follicles were recorded (to the nearest 0.1 mm) at each scanning. A gilt was declared to have ovulated when the number of large follicles (≧6.5 mm) fell to less than 3.
A single 2 mL dose of triptorelin gel or vehicle gel was deposited within approximately 1-2 cm posterior to the cervix with a catheter similar to those used for artificial insemination. The dose was delivered using a standard multi-dose applicator attached to the catheter. A new disposable sheath, which surrounds the catheter, was used for each gilt.
Data were analyzed using the Mixed Models procedures of SAS. Models included main effects of time of treatment following the last feeding of MATRIX®, replicate, and treatment by replicate interaction. Differences between treatments were tested on least squares means estimates using the T test at P<0.05. Data for analysis were tested for assumptions of data normality.

[2] = system: gilts; assay: Example 1: estrus observation (boar exposure, back pressure) after triptorelin gel; format: in vivo, swine; settings: 200 mcg T at 120 h post-MATRIX; raw average; PTK 1-07 (rep 3)
Procedure: All gilts were individually fed MATRIX® as a top-dress for 14 days at the recommended rate of 15 mg/gilt/day. Gilts were withdrawn from MATRIX® feeding (last top feed in the morning on Day 0) and allotted to treatments. Controls were treated with a 1.2% methylcellulose gel formulation without triptorelin at 96 hours following MATRIX® withdrawal (last top-dress). The remaining gilts received 200 mcg triptorelin, as the acetate, in a 1.2% methylcellulose gel formulation intravaginally at various times after MATRIX® withdrawal. The four treatments were: 1) vehicle gel (VG) treatment at 96 hours after MATRIX® withdrawal, 2) triptorelin gel (TG) treatment at 96 hours after MATRIX® withdrawal, 3) TG treatment at 120 hours after MATRIX® withdrawal and 4) TG treatment at 144 hours after MATRIX® withdrawal. All gilts were monitored for their estrous and ovulatory status as described below. Gilts included in replicate 1 were selected from terminal line commercial production gilts located in grow/finish barns. Sexual maturity, as indicated by one or more estrous periods, was not verified prior to the start of MATRIX® feeding. Gilts included in replicate 2 were selected from a maternal line gilt population. Sexual maturity was verified by at least one estrous period verified and recorded prior to starting MATRIX® feeding. […]
Data were analyzed using the Mixed Models procedures of SAS. […]

CC(C)C[C@H](NC(=O)[C@@H](Cc1c[nH]c2ccccc12)NC(=O)[C@H](Cc1ccc(O)cc1)NC(=O)[C@H](CO)NC(=O)[C@H](Cc1c[nH]c2ccccc12)NC(=O)[C@H](Cc1c[nH]cn1)NC(=O)[C@@H]1CCC(=O)N1)C(=O)N[C@@H](CCCNC(=N)N)C(=O)N1CCC[C@H]1C(=O)NCC(N)=O [T, pGlu-His-Trp-Ser-Tyr-D-Trp-Leu-Arg-Pro-Gly-NH2]
% of Sows Ovulating ([1]; 128 h post-MATRIX (8 h post-T)): 0.0% | % of Sows Ovulating ([1]; 136 h post-MATRIX (16 h post-T)): 10.0% | % of Sows Ovulating ([1]; 144 h post-MATRIX (24 h post-T)): 30.0% | % of Sows Ovulating ([1]; 152 h post-MATRIX (32 h post-T)): 70.0% | % of Sows Ovulating ([1]; 160 h post-MATRIX (40 h post-T)): 80.0% | % of Sows Ovulating ([1]; 168 h post-MATRIX (48 h post-T)): 90.0% | % of Sows Ovulating ([1]; 176 h post-MATRIX (56 h post-T)): 100.0% | Estrous Expression (%) [2]: 100.0%
